The values that follow come from patent US10179143B2, “Anti-viral azide containing compounds” (LIFE TECHNOLOGIES CORPORATION, priority 2010, dated 2019).

Assay [1] has as its system Nuclear-GFP BacMam 2.0 Virus. Kind of assay: Infectivity of PTM analog-labeled Nuclear-GFP BacMam 2.0 virus in U2-OS cells (nuclear-GFP expression). The assay is classed as cell-based, baculovirus. Particulars: BacMam virus labeled in Sf9 insect cells with 50 μM analog for 4 days; 20 or 50 uL virus on U2-OS cells overnight; FIG. 5. An excerpt: Inhibition of insect cell baculovirus infectivity with azido fatty acid analogs: The BacMam system uses a modified insect cell virus (baculovirus) as a vehicle to efficiently deliver and express genes in mammalian cells. A Nuclear-GFP BacMam 2.0 expression system (Invitrogen, C10602) was used as a model to determine if PTM analog labeling of the virus would affect mammalian cell infectivity. Viruses were labeled with various PTM analogs and used to infect mammalian cells. Infectivity was determined by the expression of nuclear-GFP, as viral entry into the cell is required for expression of GFP protein. […]
Characterization of BacMam virus production: To verify, quantitate, and normalize the amount of enriched viruses obtained from insect cell supernatants, samples of each virus were lysed in SDS sample preparation buffer (SPB), sonicated with a probe tip sonicator, and heated at 90C to completely dissolve the viral proteins. Viral protein concentrations of the lysates were then determined. […]
Mammalian cell infection protocol: To determine if the PTM analog-labeled viruses retain the ability to infect mammalian cells, 50,000 U2-OS cells (human osteosarcoma cell line) were plated onto a 6 well-chamber glass bottom plate. […] The following day cells were imaged on AMG EVOS fluorescence microscope at 10× or 20× magnification using both white light and GFP filters (FIG. 5). […]

The next assay relates to HIV. Kind of assay: Luciferase reporter assay of infectivity of azide-labeled HIV on TZM/BI reporter cells. The assay is classed as cell-based, HIVNL4-3. Particulars: virus produced in CEMx174 cells spiked with the compound (fatty acids 50-100 μM, sugars 20-40 μM); normalized to p24; 12 hours on TZM/BI; single cycle replication system; FIGS. 3 and 4. As for the experimental part: CEMx174 cells were transfected with HIVNL4-3 in a T-150 flask and the virus production was monitored by reverse transcriptase activity until peak virus production occurred (usually 7 to 9 days post transfection). Prior to transfection, the CEMx174 cells were spiked with the following azide-modified biomolecules: 15-azidopentadecanoic acid (50-100 μM), 12-azidododecanoic acid (50-100 μM), tetraacetylated N-azidoacetylgalactosamine (20-40 μM), and tetraacetylated N-azidoacetyl-D-mannosamine (20-40 μM).
Labeled virus was also obtained from the transfected cells. More specifically, virus-containing supernatants were collected and virus was purified through 20% sucrose as previously described (Graham, D.R. et al., Proteomics 2008, 8:4919-30). The purified virus was then mixed with the CLICK-IT® detection reagent, tetramethylrhodamine (TAMRA) alkyne and the CLICK-IT® Protein Reaction Buffer Kit (Invitrogen, Carlsbad, Calif.). Virus samples were run on a one-dimensional gel to reveal azide-labeled viral proteins (FIG. 2). […]
To examine the effect of the azide-modified biomolecules on the innate biology of the virus, the azide-labeled virus from the transfected cells was isolated and tested in cell infection studies. […] Viral infectivity was determined by measuring cellular luciferase activities with two different luciferase reagents.

For `[N-]=[N+]=NCCCCCCCCCCCC(=O)O` [12-azidododecanoic acid], the “nuclear-GFP expression in U2-OS cells (viral entry)” value in assay [1] was “no nuclear-GFP expression”. In addition, the “impact on the infectivity of the virus (cellular luciferase activities)” value in the assay with HIV is given as “profound impact on the infectivity of the virus”.

Regarding `[N-]=[N+]=NCCCCCCCCCCCCCCC(=O)O` [15-azidopentadecanoic acid], the “nuclear-GFP expression in U2-OS cells (viral entry)” value in assay [1] is given as “no nuclear-GFP expression”.
